The source of these data is patent publication US8138119B2, “Alkoxyalkyl spirocyclic tetramic acids and tetronic acids” (Bayer Cropscience AG, priority 2005, dated 2012).

The structures appear in SMILES notation.

A short description of the series: Determination of the log P values by HPLC on a reversed-phase column (C18). Type of series: physicochemical. The method, then:
The log P values given in the table were determined in accordance with EEC Directive 79/831 Annex V.A8 by HPLC (High Performance Liquid Chromatography) on a reversed-phase column (C18). Temperature: 43° C.
Mobile phases for the determination in the acidic range (pH 2.3): 0.1% aqueous phosphoric acid, acetonitrile; linear gradient from 10% acetonitrile to 90% acetonitrile
Calibration was carried out using unbranched alkan-2-ones (with 3 to 16 carbon atoms) whose log P values are known (determination of the log P values by the retention times using linear interpolation between two successive alkanones).

The mark [1] stands for this setting: compounds of the formula (III), cis/trans isomer mixture, first value of the cell.
Where [2] appears, read: compounds of the formula (III), cis/trans isomer mixture, second value of the cell.
Setting [3] is: compounds of the formula (I-2-a), m.p. ° C./log P.

As usually defined, the log P is the decadic logarithm of the partition coefficient of the neutral form, usually between octanol and water. Regarding `CCOC(=O)C1(OC(=O)Cc2cc(-c3ccc(Cl)cc3)ccc2C)CCCC(COC)C1` (mixture of isomers) [III-2], the log partition coefficient (log P) under setting [1] came to 5.50 and the “log P” value under setting [2] came out at 5.58.

Take `CCOC(=O)C1(OC(=O)Cc2c(C)cc(Br)cc2C)CCCC(COC)C1` (mixture of isomers) [III-3]: the “log P” value under setting [1] turned out to be 4.94 and the “log P” value under setting [2] is 5.05. For the molecule `CCOC(=O)C1(OC(=O)Cc2c(C)cc(Cl)cc2C)CCCC(COC)C1` (mixture of isomers) [III-4], the “log P” value is, setting by setting: under setting [1], 4.82; under setting [2], 4.93. On to `CCOC(=O)C1(OC(=O)Cc2cc(C)c(C)cc2C)CCCC(COC)C1` (mixture of isomers) [III-5], for which the “log P” value runs as follows: under setting [1], 4.85; under setting [2], 4.93. Take `CCOC(=O)C1(OC(=O)Cc2c(C)cc(C)cc2C)CCCC(COC)C1` (mixture of isomers) [III-6]: the “log P” value is, setting by setting: under setting [1], 4.85; under setting [2], 4.94. Turning to `CCOC(=O)C1(OC(=O)Cc2c(CC)cc(Br)cc2CC)CCCC(COC)C1` (mixture of isomers) [III-7], the “log P” value stood at 5.52 under setting [1] and 5.62 under setting [2]. For `CCOC(=O)C1(OC(=O)Cc2cc(-c3ccc(Cl)cc3)ccc2C)CCC(COC)CC1` (mixture of isomers) [III-8], the “log P” value by setting is: under setting [1], 5.36; under setting [2], 5.49. Taken in the same sequence, the figures for `CCOC(=O)C1(OC(=O)Cc2c(C)cc(Br)cc2C)CCC(COC)CC1` (mixture of isomers) [III-9] were 4.88 and 5.01. For `CCOC(=O)C1(OC(=O)Cc2c(C)cc(Cl)cc2C)CCC(COC)CC1` (mixture of isomers) [III-10], the “log P” value stood at 4.76 under setting [1] and 4.90 under setting [2]. Taken in the same sequence, the figures for `CCOC(=O)C1(OC(=O)Cc2cc(C)c(C)cc2C)CCC(COC)CC1` (mixture of isomers) [III-11] were 4.74 and 4.85.

`CCOC(=O)C1(OC(=O)Cc2c(C)cc(C)cc2C)CCC(COC)CC1` (mixture of isomers) [III-12]: the “log P” value is listed as 4.76 under setting [1] and 4.88 under setting [2]. Taken in the same sequence, the figures for `CCOC(=O)C1(OC(=O)Cc2c(CC)cc(Br)cc2CC)CCC(COC)CC1` (mixture of isomers) [III-13] were 5.52 and 5.65. Turning to `CCOC(=O)C1(OC(=O)Cc2c(CC)cc(C)cc2CC)CCC(COC)CC1` (mixture of isomers) [III-14], the “log P” value by setting is: under setting [1], 5.39; under setting [2], 5.51. Taken in the same sequence, the figures for `CCOC(=O)C1(OC(=O)Cc2cc(C)c(-c3ccc(Cl)cc3)cc2C)CCC(COC)CC1` (mixture of isomers) [III-15] were 5.90 and 5.98. Taken in the same sequence, the figures for `CCOC(=O)C1(OC(=O)Cc2cc(-c3ccc(Cl)cc3)ccc2Cl)CCC(COC)CC1` (mixture of isomers) [III-16] were 5.52 and 5.67. For the molecule `CCOC(=O)C1(OC(=O)Cc2c(C)ccc(-c3ccc(Cl)cc3)c2C)CCC(COC)CC1` (mixture of isomers) [III-17], the “log P” value is, setting by setting: under setting [1], 5.86; under setting [2], 5.96. Taken in the same sequence, the figures for `CCOC(=O)C1(OC(=O)Cc2cc(-c3ccc(Cl)cc3)ccc2C)CCCC(CCOC)C1` (mixture of isomers) [III-18] were 5.68 and 5.80. Taken in the same sequence, the figures for `CCOC(=O)C1(OC(=O)Cc2c(C)cc(Br)cc2C)CCCC(CCOC)C1` (mixture of isomers) [III-19] were 5.13 and 5.26. Taken in the same sequence, the figures for `CCOC(=O)C1(OC(=O)Cc2c(C)cc(Cl)cc2C)CCCC(CCOC)C1` (mixture of isomers) [III-20] were 5.00 and 5.11. As for `CCOC(=O)C1(OC(=O)Cc2cc(C)c(C)cc2C)CCCC(CCOC)C1` (mixture of isomers) [III-21], the “log P” value reads like this: under setting [1], 4.94; under setting [2], 5.05.

As for `CCOC(=O)C1(OC(=O)Cc2c(C)cc(C)cc2C)CCCC(CCOC)C1` (mixture of isomers) [III-22], the “log P” value under setting [1] turned out to be 4.94 and the “log P” value under setting [2] is 5.05.

In the case of `CCOC(=O)C1(OC(=O)Cc2c(CC)cc(Br)cc2CC)CCCC(CCOC)C1` (mixture of isomers) [III-23], the “log P” value under setting [1] was found to be 5.69 and the “log P” value under setting [2] was 5.81. Taken in the same sequence, the figures for `CCOC(=O)C1(OC(=O)Cc2c(CC)cc(C)cc2CC)CCCC(CCOC)C1` (mixture of isomers) [III-24] were 5.56 and 5.66. Taken in the same sequence, the figures for `CCOC(=O)C1(OC(=O)Cc2cc(C)c(-c3ccc(Cl)cc3)cc2C)CCCC(CCOC)C1` (mixture of isomers) [III-25] were 6.03 and 6.12. Taken in the same sequence, the figures for `CCOC(=O)C1(OC(=O)Cc2cc(-c3ccc(Cl)cc3)ccc2Cl)CCCC(CCOC)C1` (mixture of isomers) [III-26] were 5.67 and 5.82. Turning to `CCOC(=O)C1(OC(=O)Cc2c(C)ccc(-c3ccc(Cl)cc3)c2C)CCCC(CCOC)C1` (mixture of isomers) [III-27], the “log P” value under setting [1] amounted to 6.02 and the “log P” value under setting [2] came to 6.09. Taken in the same sequence, the figures for `CCOC(=O)C1(OC(=O)Cc2cc(-c3ccc(Cl)cc3)ccc2C)CCC(CCOC)CC1` (mixture of isomers) [III-28] were 5.69 and 5.81. With `CCOC(=O)C1(OC(=O)Cc2c(C)cc(Br)cc2C)CCC(CCOC)CC1` (mixture of isomers) [III-29], the “log P” value reads like this: under setting [1], 5.13; under setting [2], 5.29. Taken in the same sequence, the figures for `CCOC(=O)C1(OC(=O)Cc2c(C)cc(Cl)cc2C)CCC(CCOC)CC1` (mixture of isomers) [III-30] were 5.00 and 5.15. As to `CCOC(=O)C1(OC(=O)Cc2cc(C)c(C)cc2C)CCC(CCOC)CC1` (mixture of isomers) [III-31], the “log P” value reads like this: under setting [1], 5.00; under setting [2], 5.09. Taken in the same sequence, the figures for `CCOC(=O)C1(OC(=O)Cc2c(CC)cc(Br)cc2CC)CCC(CCOC)CC1` (mixture of isomers) [III-32] were 5.75 and 5.90.

Consider `CCOC(=O)C1(OC(=O)Cc2c(CC)cc(C)cc2CC)CCC(CCOC)CC1` (mixture of isomers) [III-33], for which the “log P” value is reported as 5.64 under setting [1] and 5.75 under setting [2]. Taken in the same sequence, the figures for `CCOC(=O)C1(OC(=O)Cc2cc(C)c(-c3ccc(Cl)cc3)cc2C)CCC(CCOC)CC1` (mixture of isomers) [III-34] were 6.14 and 6.19.

Take `CCOC(=O)C1(OC(=O)Cc2cc(-c3ccc(Cl)cc3)ccc2Cl)CCC(CCOC)CC1` (mixture of isomers) [III-35]: the “log P” value runs as follows: under setting [1], 5.70; under setting [2], 5.85. `COCC1CCCC2(C1)OC(=O)C(c1cc(C)c(C)cc1C)=C2O` (centres unmarked) [1-2-a-5]: the “log P” value under setting [3] was “oil/2.78”. The same measure, in the same setting: for `COCC1CCCC2(C1)OC(=O)C(c1cc(-c3ccc(Cl)cc3)ccc1C)=C2O` (centres unmarked) [Example I-2-a-2] the value was “oil/3.58”. Still for that read-out and setting: for `CCc1cc(Br)cc(CC)c1C1=C(O)C2(CCCC(COC)C2)OC1=O` (centres unmarked) [Example I-2-a-7] the value was “oil/3.44”.
